Entries after “also recorded” stand apart in the source; their conditions may differ. Where two headings read alike, the source gives them in different places.

These results are taken from US5668173A, “Method of increasing the conversion of homocysteine to methionine and uses thereof” (priority 1996, dated 1997).

For series [1] the following is noted: high dietary levels; cited from earlier work.
The subject of series [2] is chickens. To be noted: cited from earlier work.
For series [3], the target named is T1, pig liver betaine-homocysteine methyltransferase (Sus scrofa, UniProt A0A5G2RCW6).
T1 construct: given as hexamer, now known as homotetramer
T1 sequence (A0A5G2RCW6 1-407): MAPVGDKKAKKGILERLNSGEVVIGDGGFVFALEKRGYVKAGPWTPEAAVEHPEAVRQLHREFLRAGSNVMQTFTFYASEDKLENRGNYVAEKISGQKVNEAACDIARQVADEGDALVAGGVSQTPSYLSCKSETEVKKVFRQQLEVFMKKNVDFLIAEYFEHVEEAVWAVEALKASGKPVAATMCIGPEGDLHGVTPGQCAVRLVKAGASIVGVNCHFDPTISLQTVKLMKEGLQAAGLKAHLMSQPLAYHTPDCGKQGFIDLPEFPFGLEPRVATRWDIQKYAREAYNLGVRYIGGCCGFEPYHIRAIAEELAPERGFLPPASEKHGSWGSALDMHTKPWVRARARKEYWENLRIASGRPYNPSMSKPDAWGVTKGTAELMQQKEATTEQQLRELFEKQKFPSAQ
Kind of series: Initial rate kinetics of purified pig liver betaine-homocysteine methyltransferase. The class given is biochemical. The settings on record: for Vmax(rel): Table II, relative, corrected for an equivalent amount of enzyme. Here is the method:
(§1) Betaine-homocysteine methyltransferase activity was measured as described by Finkelstein and Mudd (43) with the following minor modifications. […] Following a 2 hour incubation, samples were chilled to 0° C. and 2.5 mL ice-cold water was added. The samples were loaded onto a 0.5 cm (diameter) column containing 1 mL of Dowex 1-X4 (OH--) resin (100-200 mesh). The unreacted betaine (or dimethylacetothetin) was washed from the column with water (3×5 mL), and dimethylglycine (or methylthioacetate) and methionine eluted into scintiallation vials with 3 mL 1.5 N HCl. Blanks contained all of the reaction components except enzyme and their values were subtracted from the sample values. All samples were assayed in duplicate.
Michealis and Vmax constants were estimated from plotting initial rate data according to the method of Hanes (44).
Betaine-homocysteine methyltransferase has been purified to homogeneity from pig liver (45).
Using purified enzyme, initial rate studies were performed to determine the Michaelis constants of betaine, dimethylacetothetin, and homocysteine and to investigate the kinetic mechanism of the enzyme.

Series [4] has as its system rat betaine-homocysteine methyltransferase. The settings on record: rat enzyme containing extracts; read-out: Michealis constant; cited from earlier work.
For series [5] the following is noted: cited from earlier work; for urinary level during betaine treatment: urine.
For series [6], the system named is human betaine-homocysteine methyltransferase. To be noted: human enzyme containing extracts; read-out: Michealis constant; cited from earlier work.
For series [7], the system named is growing rats. The settings on record: cited from earlier work; for replacement of dietary requirement for choline: growing rats, diets lacking methionine but containing homocystine; for food intake and growth: thetins 0.5-0.93% (w/w) of the diet, 3 to 4 weeks.
For series [8], the system named is hepatic betaine-homocysteine methyltransferase. To be noted: surfeit dietary levels, crude liver extracts, compared to control; cited from earlier work.
In series [9] the test system is betaine-homocysteine methyltransferase. To be noted: cited from earlier work; for methionine produced compared with betaine as methyl donor: saturating levels of substrates, corrected for enzyme concentration.
In series [10] the test system is pigs. The settings on record: dietary betaine; cited from earlier work.
Series [11] relates to cystathionine-β-synthase. The settings on record: dietary cysteine increased; cited from earlier work.
For series [12], the system named is Escherichia coli. To be noted: cited from earlier work.
Series [13] concerns horse betaine-homocysteine methyltrasferase. To be noted: saturating levels of substrate; purified horse enzyme; cited from earlier work.
The test system of series [14] is animals. To be noted: prior studies; cited from earlier work.
The subject of series [15] is rat betaine-homocysteine methyltransferase. To be noted: cited from earlier work.
In series [16] the test system is human betaine-homocysteine methyltransferase. The settings on record: cited from earlier work.
In series [17] the target is T1, pig liver betaine-homocysteine methyltransferase. Kind of series: Product inhibition of pig liver betaine-homocysteine methyltransferase activity. Format: biochemical. The settings on record: for pmol methionine: inhibitor 50 μM, L-homocysteine 50 μM, betaine 25 μM. How it is done:
as §1
The subsequent metabolism of these products could have significant effects on flux through the betaine-homocysteine methyltransferase reaction because the rate of product removal would determine whether a product accumulates enough to inhibit enzyme activity. When pharmacological doses of betaine is used for the treatment of severe hyperhomocyst(e)inemia, dimethylglycine oxidation appears to be insufficient, and as a result, dimethylglycine accumulates.
Inhibition pf pig liver betaine-homocysteine methyltransferase
activity by dimethyglycine ethylthoacetate in the presence of
It is possible that homocysteine, dimethylglycine, and betaine-homocysteine methyltransferase form an abortive ternary complex.

In series [18] the test system is primates. To be noted: infusion, 3 month period; cited from earlier work.
The conditions of series [19]: sulfur amino acid intake optimal; cited from earlier work.
Series [20] concerns chickens. The settings on record: dietary; cited from earlier work.
The test system of series [21] is cystathionine-β-synthase deficiency. To be noted: cited from earlier work.
Substrate in series [22]: N[C@@H](CCS)C(=O)O
Put plainly: purified protein, by the assay type. The settings on record: other: saturating levels of one substrate while varying the other; betaine 250 μM or L-homocysteine 500 μM fixed.

Substrate in series [23]: C[S+](C)CC(=O)O
Kind of series: Initial rate kinetics of purified pig liver betaine-homocysteine methyltransferase. The class given is biochemical. The settings on record: other: saturating levels of one substrate while varying the other; betaine 250 μM or L-homocysteine 500 μM fixed.

Substrate in series [24]: C[N+](C)(C)CC(=O)O
The description is as above. The settings on record: other: saturating levels of one substrate while varying the other; betaine 250 μM or L-homocysteine 500 μM fixed. The class given is biochemical.

Regarding `CSCCC(=O)O` [3-methylthiopropionate], the “toxicity” value in series [1] is recorded as “produces toxic symptoms identical to those produced by excess methionine consumption”.

On to `C[N+](C)(C)CC(=O)O` [betaine], for which the “carcass fat” value in [2] (dietary betaine, chickens) is given as “can reduce carcass fat”; in [10], “can reduce carcass fat”. For the same molecule, in series [2] (fowl), the “treatment of diarrhea and wet litter” value is “effective in the treatment of diarrhea and wet litter”. Also, the “Vmax(rel)” value in [3] was determined as 1. The Km in series [4] was 25 to 50 µM; in series [6], 25 to 50 µM; in series [9] (prior studies, source of enzyme not stated) it was 20 to 50 µM. The “normalization of plasma homocysteine” value in series [5] (betaine treatment of severe hyperhomocyst(e)inemia) is reported as “rarely attained; also recorded: usually does not fall within the normal range; also recorded: does not usually lower plasma homocysteine to within the normal range”. Besides, the “plasma homocysteine” value in series [5] (pharmacological doses of betaine, hyperhomocyst(e)inemia) was “reduce plasma homocysteine; also recorded: generally lowers plasma homocysteine compared to pretreatment levels”. For the same molecule, the “urinary level during betaine treatment” value in series [5] was “dramatic increase”. Also, the “replacement of dietary requirement for choline” value (from here on “replacement”) in series [7] was “can replace the dietary requirement for choline”. The “food intake and growth” value in [7] is “not different among experimental groups”. Besides, the “hepatic betaine-homocysteine methyltransferase activity” value in [8] is on record as “higher levels of betaine-homocysteine methyltransferase activity”. The “Kcat of betaine-dependent reaction” value in series [9] is listed as “very low Kcat”.

For `C[N+](C)(C)CCO` [choline], the “food intake and growth” value in series [7] is reported as “not different among experimental groups”.

For `N[C@@H](CS)C(=O)O` [cysteine], in [11], the “cystathionine-β-synthase activity and mRNA levels” value is recorded as “decrease”.

Take `C[S+](C)CC(=O)O` [dimethylacetothetin]: in [3], the “Vmax(rel)” value stood at 7. For the same molecule, the “rate of methylation of homocysteine, faster than with betaine” value in series [3] (equimolar concentrations as betaine, inferred from Vmax/Km) is “at least 700%”. Besides, the “Vmax/Km compared with betaine” value in series [3] (greater than that for betaine) is reported as 7 fold. Moreover, in [3] (greater than when betaine was used), the “relative Vmax compared with betaine” value was 47 fold. Also, the “specificity (Vmax/Km) compared with betaine” value in [3] (initial rate studies) is listed as “greater specificity”. Further, the “effectiveness as osmolyte compared with betaine” value in series [12] is on record as “equally effective as betaine”. Further, the “increase in methionine production compared to betaine” value in [13] is reported as 350 fold. For the same molecule, the “replacement” value in series [7] was “can replace the dietary requirement for choline; also recorded: replace the dietary requirement for choline (or betaine)”. For the same molecule, the “methionine produced compared with betaine as methyl donor” value in series [9] is on record as “more methionine was produced”. Also, the “toxicity to animals” value in [14] is “non-toxic to animals”.

For `CN(C)CC(=O)O` [dimethylglycine], the “inhibition of rat betaine-homocysteine methyltransferase” value in [15] is recorded as “potent inhibitor”. In addition, the “urinary level during betaine treatment” value in series [5] is given as “dramatic increase”. Moreover, the “inhibition of methionine production” value in [16] (10 μM dimethylglycine) is recorded as 50%. The “inhibition of human betaine-homocysteine methyltransferase” value in series [16] is recorded as “potent inhibitor”. Moreover, in series [17], the activity at 50 µM was 30% and the pmol methionine is on record as 208 pmol. Besides, the “type of inhibition relative to homocysteine” value in series [17] (Dixon plots, betaine 25 μM or 250 μM, L-homocysteine varied) was “uncompetitive inhibitor; also recorded: uncompetitive inhibition”. Moreover, in series [17] (product inhibition studies), the “inhibition of pig betaine-homocysteine methyltransferase” value is on record as “potent inhibitor”.

Take `C[S+](C)CCC(=O)O` [dimethylpropiothetin]: the “increase in methionine production compared to betaine” value in series [13] is on record as 54 fold. For the same molecule, the “replacement” value in series [7] (listed as dimethylpropriothetin) was “can replace the dietary requirement for choline; also recorded: replace the dietary requirement for choline (or betaine)”. In addition, in series [9] (previous studies), the “Vmax compared with betaine-dependent reaction” value is recorded as “higher Vmax” and the “Vmax compared with dimethylacetothetin-dependent reaction” value is “lower Vmax”. Moreover, the “methionine produced compared with betaine as methyl donor” value in series [9] was “more methionine was produced”. In addition, in series [14], the “toxicity to animals” value was “non-toxic to animals”.

Regarding `N[C@@H](CCS)C(=O)O` [homocysteine], the Km in series [4] and in [6] was 25 to 50 µM throughout. Further, the “vascular lesions” value in series [18] is recorded as “vascular lesions have been induced in primates”.

Consider `CSCC[C@H](N)C(=O)O` [methionine], for which the “toxicity” value in series [1] is on record as “most toxic of all amino acids required for protein synthesis”. Besides, the “hepatic betaine-homocysteine methyltransferase activity” value in series [8] is on record as “higher levels of betaine-homocysteine methyltransferase activity”. Also, in [19], the “absorbed methionine converted to cysteine or completely oxidized” value is given as “about 30%” and the “absorbed methionine retained by the animal” value was “about 70%”.

As to `CSCC(=O)O` [methylthioacetate], in series [17], the activity at 50 µM was 59% and the pmol methionine came to 416 pmol. In addition, the “affinity for betaine-homocysteine methyltransferase relative to dimethylglycine” value in series [17] (than dimethylglycine) is “lower affinity”.

For the molecule `O=S(=O)(O)O` [sulfate], in [20], the “cystine requirements” value is given as “decrease cystine requirements”.

Consider vitamin B6, for which, in series [21], the “individuals non-responsive to vitamin B6” value is recorded as 50% and the “individuals responding to supplemental B6” value is listed as “approximately 50%”.

B1: pig liver betaine-homocysteine methyltransferase (Sus scrofa) (protein)
chain: MAPVGDKKAKKGILERLNSGEVVIGDGGFVFALEKRGYVKAGPWTPEAAVEHPEAVRQLHREFLRAGSNVMQTFTFYASEDKLENRGNYVAEKISGQKVNEAACDIARQVADEGDALVAGGVSQTPSYLSCKSETEVKKVFRQQLEVFMKKNVDFLIAEYFEHVEEAVWAVEALKASGKPVAATMCIGPEGDLHGVTPGQCAVRLVKAGASIVGVNCHFDPTISLQTVKLMKEGLQAAGLKAHLMSQPLAYHTPDCGKQGFIDLPEFPFGLEPRVATRWDIQKYAREAYNLGVRYIGGCCGFEPYHIRAIAEELAPERGFLPPASEKHGSWGSALDMHTKPWVRARARKEYWENLRIASGRPYNPSMSKPDAWGVTKGTAELMQQKEATTEQQLRELFEKQKFPSAQ
notes: given as hexamer, now known as homotetramer
With B1, the Km in [22] was 32 µM; in series [23], 155 µM; in [24], 23 µM.
